Results on two compounds are retold here after ChEMBL document CHEMBL4387736, “Anticancer saponin OSW-1 is a novel class of selective Golgi stress inducer” (Bioorg Med Chem Lett, 2019).

A word on the GI50: it is the concentration at which growth is held to half of that of the control.

Each structure is given as a SMILES string. Activity calls are given as the source filed them. The rule behind the calls is not given here.

Data set [1] concerns Panel NCI-60 (60 carcinoma cell lines). As to the kind of experiment: Growth inhibition of human NCI60 cells. Format: functional.
A short description of data set [2]: Drug localization in golgi apparatus of human HeLa cells at 0.5 uM by fluorescence microscopy. Format: ADME, subcellular.
For data set [3], the target named is T1, Oxysterol-binding protein 1 (Homo sapiens) (UniProt P22059).
T1 sequence (whole entry): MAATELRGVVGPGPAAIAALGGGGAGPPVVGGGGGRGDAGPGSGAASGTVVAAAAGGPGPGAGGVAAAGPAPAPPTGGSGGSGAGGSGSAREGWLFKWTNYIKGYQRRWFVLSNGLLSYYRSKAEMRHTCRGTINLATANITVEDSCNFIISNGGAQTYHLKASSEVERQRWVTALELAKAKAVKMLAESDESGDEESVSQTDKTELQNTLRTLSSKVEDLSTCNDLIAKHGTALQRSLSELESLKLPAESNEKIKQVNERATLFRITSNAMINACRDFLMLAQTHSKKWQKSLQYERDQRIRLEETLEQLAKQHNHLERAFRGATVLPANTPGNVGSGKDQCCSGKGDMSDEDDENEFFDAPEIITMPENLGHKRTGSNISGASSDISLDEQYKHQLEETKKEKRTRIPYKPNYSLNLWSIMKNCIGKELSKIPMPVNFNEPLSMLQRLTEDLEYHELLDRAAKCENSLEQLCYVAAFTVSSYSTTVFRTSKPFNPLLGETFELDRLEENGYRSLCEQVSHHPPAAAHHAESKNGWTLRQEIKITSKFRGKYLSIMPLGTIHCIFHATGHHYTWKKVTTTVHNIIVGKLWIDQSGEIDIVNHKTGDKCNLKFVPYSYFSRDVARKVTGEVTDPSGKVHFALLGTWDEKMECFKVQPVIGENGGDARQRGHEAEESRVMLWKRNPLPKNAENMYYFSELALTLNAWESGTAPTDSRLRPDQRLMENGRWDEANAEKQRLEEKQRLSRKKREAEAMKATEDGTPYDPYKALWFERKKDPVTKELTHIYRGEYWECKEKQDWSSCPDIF
As to the kind of experiment: Induction of OSBP localization in golgi apparatus of human HeLa cells assessed as increase in colocalization of 58K golgi protein at 5 nM incubated for 30 mins by immunofluorescence imaging method. Format: cell-based.

Data set [4] has as its system HeLa. Description: Induction of ER stress in human HeLa cells assessed as effect on pXBP1(S) level at 1 uM incubated for 1 to 24 hrs by immunoblotting analysis. Format: functional, cell-based. Background: Immunoblotting shows a protein as a band on a membrane.
Data set [5] concerns HeLa. Description: Induction of ER stress in human HeLa cells assessed as effect on eIF2alpha level at 1 uM incubated for 1 to 24 hrs by immunoblotting analysis. Format: functional, cell-based.
Data set [6] addresses T1, Oxysterol-binding protein 1 (Homo sapiens). Description: Induction of OSBP localization in golgi apparatus of human HeLa cells assessed as dispersion of GM130 in to cytosol at 2 uM incubated for 6 hrs by immunofluorescence microscopic method. Format: cell-based.
For data set [7] the target is unchanged. As to the kind of experiment: Inhibition of OSBP in human HeLa cells assessed as induction of golgi stress by measuring TFE3 nuclear translocation at 2 uM incubated for 4 hrs by immunofluorescence imaging analysis. Format: cell-based.
For data set [8] the target is unchanged. As to the kind of experiment: Inhibition of OSBP in human HeLa cells assessed as induction of golgi stress by measuring TFE3(S)/TFE3(L) dephosphorylation at 1 uM incubated for 2 hrs by Western blot analysis. Format: cell-based.
Data set [9] has the same target. As to the kind of experiment: Inhibition of OSBP in human HeLa cells assessed as induction of golgi stress by measuring increase in TFE3-mediated GM130 mRNA expression at 2 uM incubated for 12 hrs. Format: cell-based.
Data set [10] has the same target. As to the kind of experiment: Inhibition of OSBP in human HeLa cells assessed as induction of golgi stress by measuring downregulation of HSP47 mRNA expression at 2 uM incubated for 12 hrs. Format: cell-based.
Data set [11] has the same target. As to the kind of experiment: Inhibition of OSBP in human HeLa cells assessed as induction of golgi stress by measuring increase in TFE3-mediated UAP1L1 mRNA expression at 2 uM incubated for 12 hrs. Format: cell-based.
Data set [12] has the same target. Description: Induction of OSBP localization in golgi apparatus of human HeLa cells assessed as dispersion of giantin in to cytosol at 2 uM incubated for 6 hrs by immunofluorescence microscopic method. Format: cell-based.
For data set [13] the target is unchanged. As to the kind of experiment: Inhibition of OSBP in human HeLa cells assessed as induction of golgi stress by measuring upregulation of ARF4 mRNA expression at 2 uM incubated for 12 hrs. Format: cell-based.
For data set [14], the system named is HeLa. As to the kind of experiment: Induction of ER stress in human HeLa cells assessed as effect on CHOP mRNA level at 2 uM incubated for 1 1 hrs by qRT-PCR analysis. Format: functional, cell-based. (Real-time PCR tracks product formation cycle by cycle.)
Data set [15] has as its system HeLa. As to the kind of experiment: Induction of ER stress in human HeLa cells assessed as effect on ERdj4 mRNA level at 2 uM incubated for 1 1 hrs by qRT-PCR analysis. Format: functional, cell-based.
Data set [16] has as its target T1, Oxysterol-binding protein 1 (Homo sapiens). As to the kind of experiment: Induction of OSBP localization in golgi apparatus of human HeLa cells assessed as induction of cytosolic OSBP aggregation into vesicular structures at Golgi at 0.5 uM by eYFP detection based time-lapse imaging. Format: cell-based.
Data set [17] deals with HeLa. Description: Induction of ER stress in human HeLa cells assessed as effect on pATF6(N) level at 1 uM incubated for 1 to 24 hrs by immunoblotting analysis. Format: functional, cell-based.
Data set [18] addresses T1, Oxysterol-binding protein 1 (Homo sapiens). As to the kind of experiment: Inhibition of OSBP in human HeLa cells assessed as induction of golgi stress by measuring increase in TFE3-mediated SIAT4A mRNA expression at 2 uM incubated for 12 hrs. Format: cell-based.
Data set [19] relates to HeLa. Description: Induction of ER stress in human HeLa cells assessed as effect on BiP mRNA level at 2 uM incubated for 1 1 hrs by qRT-PCR analysis. Format: functional, cell-based.
The target of data set [20] is T1, Oxysterol-binding protein 1 (Homo sapiens). Description: Inhibition of OSBP in human HeLa cells assessed as induction of golgi stress by measuring GASE transactivation at 1 uM incubated for 24 hrs by GASE-luciferase reporter gene assay. Format: cell-based. Background: A reporter such as luciferase makes a cellular process visible.
The test system of data set [21] is HeLa. Description: Induction of ER stress in human HeLa cells assessed as effect on ATF4 level at 1 uM incubated for 1 to 24 hrs by immunoblotting analysis. Format: functional, cell-based.
Data set [22] relates to HeLa. Description: Induction of ER stress in human HeLa cells assessed as effect on pATF6(P) level at 1 uM incubated for 1 to 24 hrs by immunoblotting analysis. Format: functional, cell-based.
Data set [23] deals with T1, Oxysterol-binding protein 1 (Homo sapiens). As to the kind of experiment: Inhibition of OSBP in human HeLa cells assessed as induction of golgi stress by measuring increase in TFE3-mediated GCP60 mRNA expression at 2 uM incubated for 12 hrs. Format: cell-based.
The subject of data set [24] is HeLa. As to the kind of experiment: Induction of ER stress in human HeLa cells assessed as effect on P-eIF2alpha level at 1 uM incubated for 1 to 24 hrs by immunoblotting analysis. Format: functional, cell-based.
The test system of data set [25] is HeLa. As to the kind of experiment: Induction of ER stress in human HeLa cells assessed as effect on CHOP level at 1 uM incubated for 1 to 24 hrs by immunoblotting analysis. Format: functional, cell-based.

In [1], `COc1ccc(C(=O)O[C@H]2[C@H](O[C@@H]3[C@@H](OC(C)=O)[C@H](O[C@H]4C[C@H]5[C@@H]6CC=C7C[C@@H](O)CC[C@]7(C)[C@H]6CC[C@]5(C)[C@@]4(O)[C@H](C)C(=O)CCC(C)C)OC[C@@H]3O)OC[C@@H](OC(=O)CN(C)c3ccc(S(=O)(=O)N(C)C)c4nonc34)[C@@H]2O)cc1` displayed a GI50 of 4 nM. In data set [2], the Drug uptake entry is “Active”.

In the case of `COc1ccc(C(=O)O[C@H]2[C@H](O[C@@H]3[C@@H](OC(C)=O)[C@H](O[C@H]4C[C@H]5[C@@H]6CC=C7C[C@@H](O)CC[C@]7(C)[C@H]6CC[C@]5(C)[C@@]4(O)[C@H](C)C(=O)CCC(C)C)OC[C@@H]3O)OC[C@@H](O)[C@@H]2O)cc1`, the result in data set [3], in data set [6], in [12] and in data set [16] was Active. The outcome with HeLa [4], in the data set with HeLa [5], in the data set on HeLa [14], in the data set with HeLa [15], in the data set on HeLa [17] and in the data set with HeLa [19] was inactive. Also, the outcome with HeLa [21], in the data set with HeLa [22], in the data set on HeLa [24] and in the data set with HeLa [25] was inactive. For the same compound, the inhibition result in data set [7], in [8], in data set [9], in [10], in data set [11] and in data set [13] was “Active” throughout. The inhibition entry in [18], in data set [20] and in data set [23] was “Active” each time. This compound also had a 50% growth inhibitory concentration (GI50) in data set [1] of 0.78 nM.
